Legend:
[1] = system: isolated segment of aorta; assay: Isolated segment of aorta, tonus
[2] = pH of a solution in distilled water; type: physicochemical
[3] = system: reticulo-endothelial system; assay: Phagocytic activity of the reticulo-endothelial system, carbon clearance (HALPERN); type: in vivo, rabbit; conditions: 1 g/kg
Description: That technique is based on the study of the kinetics of the disappearance in the blood of particles of carbon injected into the vein. The kinetics of disappearance follow the equation [formula] in which formula C1 is the concentration of carbon in the blood at time T1 and C2 is the concentration of carbon in the blood at time T2, K being a constant. The constant K, called phagocytic index, represents the phagocytic activity of the cells of the reticule-endothelial system under the experimental conditions. For the tests, the technique and carbon suspension described by […]. Physiol. of Paris, Vol. 50, p. […] The study was done on rabbits of the same stock, male or female, or an average weight of about 2.5 kg, devided into four batches of four animals each. The first batch was used as controls and received, by slow intravenous injection, 10 ml of a 0.8% solution of sodium chloride ten minutes before the injection of 4 mg of carbon per 100 g of animal. […] In all the tests, a total volume of 10 ml was injected with a fairly closely related injection speed (less than five minutes).

hemorrhagic shock = assay: Irreversible hemorrhagic shock (WIGGERS) in dogs
rats = assay: Toxicity, oral administration in rats; type: in vivo, rat; conditions: six rats
Nitrogen anoxemia = Nitrogen anoxemia in rabbits; type: in vivo, rabbit
Description: The tests were done on rabbits weighing an average of 2.5 kg. The fastening of the cranial electrodes was done under local anaesthesia with procaine, as was the placing of the catheters in a femoral artery to record the blood pressure. The tracheotomies and tracheal intubations were also done under local anaesthesia using procaine. The temperature was maintained at around 38° C. Three types of anoxemia were investigated; 3. Nitrogen anoxemia: The animal was curarized and artifically ventilated as indicated above. Anoxemia was obtained by connecting a nitrogen gasbag to the air intake of the BEAUDOUIN apparatus; general non-hypercapnic anoxemia occurred. Air was […] seconds. […] A latency of 30 minutes was observed before anoxemia was caused.

[4] = system: cerebral anoxemia by clamping; assay: Cerebral anoxemia by clamping in rabbits; type: in vivo, rabbit; conditions: 1 g/kg intravenously
Description: The tests were done on rabbits weighing an average of 2.5 kg. The fastening of the cranial electrodes was done under local anaesthesia with procaine, as was the placing of the catheters in a femoral artery to record the blood pressure. The tracheotomies and tracheal intubations were also done under local anaesthesia using procaine. The temperature was maintained at around 38° C. Three types of anoxemia were investigated; 1. Elective cerebral anoxemia by stopping cerebral circulation (anoxemia by clamping): Artificial ventilation was set up by an apparatus allowing constant volume and speed of respiration. An upper sternatomy of the manubrium was carried out; the left sub-[…] artery, the left carotid artery and the right trucus brachiocephalicus were isolated. The clamps were then put into place according to the technique described by […] and LABORIT (Conference of d Agressologie Cycle, Vol. 1, p. 15 ff of 1959). The artificially ventilated animal preserved good peripheral cardiovascular dynamics during the ischemia and supported 120 seconds of clamping without severe hypotension. 3. Nitrogen anoxemia: The animal was curarized and artifically ventilated as indicated above. Anoxemia was obtained by connecting a nitrogen gasbag to the air intake of the BEAUDOUIN apparatus; general non-hypercapnic anoxemia occurred. Air was […] seconds. […] A latency of 30 minutes was observed before anoxemia was caused.

Rabbit ileum = assay: Isolated rabbit ileum, tonus
Description: Fragments of the ileum were suspended in a 75 ml isolated organ tank containing Tyrode's solution maintained at 37° C. by a thermostat and oxygenated by bubbling pure oxygen at a constant rate of flow. The movement of the organ were recorded by means of a lever on a cylinder rotating at a known constant speed.

glucidic metabolism = assay: Glucidic metabolism under intravenous perfusion in rabbits (lactacidemia, pyruvicemia, glycemia); type: in vivo, rabbit
Description: These tests were carried out on rabbits weighing an average of 2.500 kg.
A trachetomy was carried out under local anaesthesia with procaine. […] A saphenous vein and the two femoral arteries were catheterized under local anaesthesia in order to register the blood pressure by a manometer and to take blood samples; a jugular vein was catheterized to the base of the skull to sample cerebral venous blood.
The results obtained were compared with those obtained following a perfusion carried out in the same way with sodium d,l-lactate at a dose of 40 mg/kg/min.
The glycemia was measured by the enzymatic method in the arterial and cerebral venus blood. The samples were taken before the perfusion, at the end of the perfusion, and at 30 minutes and 60 minutes after perfusion.

[5] = system: free fatty acids in the plasma; assay: Non-esterified fatty acids in the plasma (DOLE); type: in vivo, rabbit; conditions: 1 g/kg
Description: Doses of 1 and 2 mg of adrenalin were introduced subcutaneously into rabbits weighing 2.5 to 3.5 kg.
FIGS. 8, 9 and 10 show the variation in the percentage of non-esterified fatty acids in the plasma as a function of the time. […]

[6] = system: response to adrenalin, noradrenalin and serotonin; assay: Response to adrenalin, noradrenalin and serotonin in the dog; type: in vivo; conditions: in the presence of dihydroxyacetone
[7] = Tolerance, intraperitoneal route, rabbits; conditions: rabbit, in vivo, ip, single dose, read-out: tolerated single dose
Description: Rabbits tolerate a single dose of 8 g/kg by the intraperitoneal route.

electro-encephalograms = conditions: in vivo

Structure (SMILES): O=C(CO)CO [dihydroxyacetone]
- tonus of an isolated segment of aorta [1]: does not act on the tonus
- pH of a solution in distilled water [2]: 4
- speed of purification of the carbon particles with respect to control animals ([3]; 10 minutes before lactic acid 0.9 g/kg, FIG. 6): considerably increases
- speed at which the carbon particles disappear with respect to control animals ([3]; FIG. 5): practically no change
- duration of the rise in blood pressure (hemorrhagic shock; 4 to 7 g/kg): maintained for several hours
- arterial and venous CO2 pressures and pH in hemorrhagic shock (hemorrhagic shock; 4 to 7 g/kg over about 3 hours): developed in a similar manner to those existing in the control animals
- glycemia in hemorrhagic shock (hemorrhagic shock; 4 to 7 g/kg over about 3 hours): rose above its initial level
- kalemia in hemorrhagic shock (hemorrhagic shock; 4 to 7 g/kg over about 3 hours): rose above that of the control animals
- lactacidemia in hemorrhagic shock (hemorrhagic shock; 4 to 7 g/kg over about 3 hours): reached values higher than in the control animals
- pyruvicemia in hemorrhagic shock (hemorrhagic shock; 4 to 7 g/kg over about 3 hours): continued to rise
- average difference in blood pressure between end of reinjection of effused blood and after the perfusion (hemorrhagic shock; 4 to 7 g/kg, average): 21.5 mm Hg
- blood pressure elevation or restoration compared with hypertonic glucose (hemorrhagic shock; comparison in words): appears to be more active than hypertonic glucose
- effect on the blood pressure in hemorrhagic shock (hemorrhagic shock; irreversible shock): favorable effect on the blood pressure
- animals died at oral dose of 80 g/kg (rats): one
- recuperation latency, nitrogen anoxemia (Nitrogen anoxemia; 1 g/kg intravenously): a slight improvement
- recuperation time, nitrogen anoxemia (Nitrogen anoxemia; 1 g/kg intravenously): no improvement
- survival time, nitrogen anoxemia (Nitrogen anoxemia; 1 g/kg intravenously, prior perfusion): minor
- blood pressure in nitrogen anoxemia (Nitrogen anoxemia; anoxemia preceded by perfusion of dihydroxyacetone): maintained a high value
- recuperation latency, anoxemia by clamping [4]: no improvement at all
- recuperation time, anoxemia by clamping [4]: no improvement
- survival time, anoxemia by clamping ([4]; prior perfusion): minor
- tonus of ileum (Rabbit ileum; 50 mg to 75 ml of survival medium): only a slight and transient tonus increase
- tonus of ileum (Rabbit ileum; dose printed as 18): a momentary hypertonia
- effect of potassium chloride in the presence of dihydroxyacetone (Rabbit ileum; rabbit ileum): decreases only the contractile amplitude without affecting the tonus
- effect on hypertonia due to acetylcholine (Rabbit ileum; rabbit ileum, acetylcholine): did not change
- effect on hypertonia caused by adrenalin (Rabbit ileum; rabbit ileum, adrenalin): clearly decreased
- effect on action of nicotine (Rabbit ileum; rabbit ileum, nicotine): clearly diminished
- effect on hypertonic activity of serotonin (Rabbit ileum; rabbit ileum, serotonin): The same observation was made with serotonin
- effect on hypertonic action of sodium lactate (Rabbit ileum; rabbit ileum, sodium lactate): influenced to only a small degree
- effect on hypertonic activity of reducing agents (Rabbit ileum; vitamin C or amino-ethyl isothiouronium): disappeared
- lactacidemia compared with perfusion of sodium lactate (glucidic metabolism; 66 mg/kg over 15 minutes): values lower than those obtained after a perfusion of sodium lactate
- lactacidemia at 30 and 60 minutes after the end of perfusion (glucidic metabolism; 30 and 60 minutes after perfusion): continued to increase at 30 and 60 minutes after the end of perfusion
- glycemia (glucidic metabolism; after a perfusion): increased considerably
- lactacidemia when perfusion of sodium lactate was followed by perfusion of dihydroxyacetone (glucidic metabolism; after sodium lactate): a progressive fall in the lactacidemia
- pyruvicemia (glucidic metabolism; rabbit, intravenous perfusion): increased in parallel with lactacidemia
- percentages of non-esterified fatty acids in the plasma after adrenalin ([5]; after 1 mg of adrenalin, fed animals, FIG. 10): general tendency toward increased percentages
- percentage of non-esterified fatty acids in the plasma, fasted animals ([5]; animals without food for 24 hours, FIG. 11): return to normal
- response to adrenalin, noradrenalin and serotonin [6]: remained unchanged
- MTD [7]: 8000 mg/kg
- formation of slow waves (electro-encephalograms): does not seem to favour the formation of slow waves

— patent US4049795A, “Treatment of hemorrhagic shock” (priority 1974, dated 1977)
